The target in assay [1] is T1, α4β2 subtype of nicotinic acetylcholine receptors (Rattus norvegicus, UniProt P09483+P12390).
T1 construct: examined using rat brain membrane obtained from whole homogenized brain; from tissue; host or cells: rat whole brain membranes (Fischer-344 male rats)
In words: Binding assay at α4β2 subtype of nicotinic acetylcholine receptors ([3H]-cytisine, rat brain membrane). An excerpt: (§1) The methods for evaluating the binding capabilities of the compounds at nicotinic acetylcholine receptors are different by subtypes of receptors. The binding capabilities of the compounds at α4β2 nicotinic acetylcholine receptors are examined using rat brain membrane obtained from whole homogenized brain, and determining the inhibiting rate of the compounds against [^3H]-cytisine binding to said brain membrane. Furthermore, the binding capabilities of the compounds at α1β1γδ nicotinic acetylcholine receptors are examined using homogenized rat muscle, and determining the inhibiting rate of the compounds against [^3H]-α-bungarotoxin binding to said muscle homogenate.
Binding Assays at α4β2 Subtype of Nicotinic Acetylcholine Receptors
(1) Preparation of Rat Brain Membrane Containing α4β2 Subtype of Nicotinic Acetylcholine Receptors
Rats were housed in the breeding cage controlled of the room temperature at 23±1° C., and the humidity of 55±5% for 1 to 4 weeks. Rats (3 to 4 rats per a cage) were housed with lights on for 12 hours daily (from 7:00 to 19:00), and allowed free access to food and water.
Preparation of rat brain membrane containing α4β2 subtype of nicotinic acetylcholine receptors was performed as follow. That is, rat brains were isolated just after sacrificed by decapitation, washed with ice-cooled saline solution and then frozen at −80° C. with liquid nitrogen and stored till using. After thawing the frozen brain, the brain was homogenized in 10 volumes of ice-cooled buffer solution (50 mM of Tris-HCl, 120 mM of NaCl, 5 mM of KCl, 1 mM of MgCl2, 2 mM of CaCl2; pH 7.4; 4° C.) using homogenizer (HG30, Hitachi Kohki Ltd.) for 30 seconds, and the homogenate were centrifuged under 1,000×G for 10 minutes at 4° C. The resulting supernatant was separated and the pellet was homogenized again with half volume of aforementioned prior buffer solution and centrifuged under the same conditions. Combined supernatant was further centrifuged under 40,000×G for 20 minutes at 4° C. The pellet was suspended in buffer solution and used for binding assays at receptors.
(2) Experiments of α4β2 Subtype of Nicotinic Acetylcholine Receptors Binding
Suspensions of membrane pellets containing 400-600 μg of protein were added to test tubes containing test compounds and [^3H]-cytisine (2 nM) in a final volume of 200 μl and incubated for 75 minutes in ice-cooled bath. The samples were isolated by vacuum filtration onto Whatman GF/B filters, which were prerinsed with 0.5% polyethylenimine just prior to sample filtration, using Brandel multi manifold cell harvester. The filters were rapidly washed with buffer solution (3×1 ml). The filters were counted in 3 ml of clearsol I (Nacalai Tesque Inc.).
The analyses of the experimental results were conducted by using the Accufit Competition Program (Beckman Ltd.).

Assay [2] deals with α1β1γδ subtype of nicotinic acetylcholine receptors (Rattus norvegicus, UniProt P18916+P25108+P25109+P25110). Nature of the assay: biochemical. It is filed as binding.
α1β1γδ subtype of nicotinic acetylcholine receptors, sequence (P25109 24-501): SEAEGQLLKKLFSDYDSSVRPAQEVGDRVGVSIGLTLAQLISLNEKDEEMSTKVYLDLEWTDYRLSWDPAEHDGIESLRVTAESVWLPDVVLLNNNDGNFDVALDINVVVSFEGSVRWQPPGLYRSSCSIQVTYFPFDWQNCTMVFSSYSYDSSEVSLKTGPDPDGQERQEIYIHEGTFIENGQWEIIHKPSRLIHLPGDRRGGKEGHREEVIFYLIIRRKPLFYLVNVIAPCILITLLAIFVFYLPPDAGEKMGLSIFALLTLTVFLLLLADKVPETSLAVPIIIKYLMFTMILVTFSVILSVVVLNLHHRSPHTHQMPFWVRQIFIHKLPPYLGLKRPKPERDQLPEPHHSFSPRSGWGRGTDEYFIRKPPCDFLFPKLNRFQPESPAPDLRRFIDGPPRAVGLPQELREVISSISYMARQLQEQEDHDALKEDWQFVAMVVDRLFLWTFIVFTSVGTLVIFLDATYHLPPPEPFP
α1β1γδ subtype of nicotinic acetylcholine receptors, sequence (P25110 22-517): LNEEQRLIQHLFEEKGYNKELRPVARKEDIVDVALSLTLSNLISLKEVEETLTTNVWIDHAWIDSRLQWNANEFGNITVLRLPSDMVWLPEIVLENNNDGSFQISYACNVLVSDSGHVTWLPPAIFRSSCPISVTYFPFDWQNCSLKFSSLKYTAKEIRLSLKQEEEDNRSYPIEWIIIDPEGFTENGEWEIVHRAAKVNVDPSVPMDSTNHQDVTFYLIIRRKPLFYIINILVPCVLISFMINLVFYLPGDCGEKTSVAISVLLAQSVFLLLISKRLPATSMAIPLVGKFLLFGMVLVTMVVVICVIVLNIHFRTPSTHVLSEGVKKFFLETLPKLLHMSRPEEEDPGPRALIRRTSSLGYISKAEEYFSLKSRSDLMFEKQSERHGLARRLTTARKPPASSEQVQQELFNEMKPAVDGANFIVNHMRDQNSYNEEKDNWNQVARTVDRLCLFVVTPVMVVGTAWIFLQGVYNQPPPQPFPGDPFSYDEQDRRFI
α1β1γδ subtype of nicotinic acetylcholine receptors, sequence (P25108 21-457): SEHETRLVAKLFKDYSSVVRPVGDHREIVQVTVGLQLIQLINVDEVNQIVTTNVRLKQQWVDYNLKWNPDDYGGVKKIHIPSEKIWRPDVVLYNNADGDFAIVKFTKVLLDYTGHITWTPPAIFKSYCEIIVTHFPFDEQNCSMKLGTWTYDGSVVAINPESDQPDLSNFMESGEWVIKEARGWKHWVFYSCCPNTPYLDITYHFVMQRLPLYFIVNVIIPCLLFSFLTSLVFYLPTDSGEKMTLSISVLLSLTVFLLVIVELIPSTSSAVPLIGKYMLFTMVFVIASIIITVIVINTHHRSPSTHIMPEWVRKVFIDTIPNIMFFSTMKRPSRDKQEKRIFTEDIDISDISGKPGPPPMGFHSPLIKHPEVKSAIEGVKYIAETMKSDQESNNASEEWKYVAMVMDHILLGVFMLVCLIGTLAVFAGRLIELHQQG
From the text: as §1
Binding Assays at α1β1γδ Subtype of Nicotinic Acetylcholine Receptors
The affinity of the compounds of the present invention to α1β1γδ subtype of nicotinic acetylcholine receptors was measured by the following method, which was modified method described by Garcha H. S., Thomas P., Spivak C.
(1) Preparation of Rat Skeletal Muscles Containing α1β1γδ Subtype of Nicotinic Acetylcholine Receptors
The substantially same animals described in the Biological Experiment 1 were used.
The isolation of α1β1γδ subtype of nicotinic acetylcholine receptors was performed as follow. That is, rat posterior skeletal muscles were isolated just after sacrificed by decapitation, washed with ice-cooled saline solution and then frozen at −80° C. with liquid nitrogen and stored till using. After thawing the frozen muscles, tissue was homogenized ([…]) with buffer solution [2.5 mM of sodium phosphate buffer (pH:7.2), 90 mM of NaCl, 2 mM of KCl, 1 mM of EDTA, 2 mM of benzamidine, 0.1 mM of benzethonium chloride, 0.1 mM of PMSF, 0.01% of sodium azide] in Waring blender (Waring blender 34BL97; WARING PRODUCTS DIVISION DYNAMICS CORPORATION OF AMERICA) for 60 seconds. The homogenate were centrifuged under 20,000×G for 60 minutes at 4° C. The supernatant was separated and the resulting pellet was added to the same buffer (1.5 ml/g wet weight), and homogenized under the same conditions. Triton X100 (2% w/v) was added and the mixture was stirred for 3 hours at 4° C. The centrifugation at 100,000×G for 60 minutes at 4° C. yielded the rat muscle extract as supernatant. This was stored at 4° C. for up to 4 weeks, and used for binding assays at receptors.
(2) Experiments of α1β1γδ Subtype of Nicotinic Acetylcholine Receptors Binding
Receptors binding experiments were performed as follow. That is, the extract of rat muscle containing 600-900 μg of protein was added to test tubes containing test compounds and incubated for 15 minutes at 37° C. Then, to this mixture was added 1 nM of [^3H]-α-bungarotoxin (α-Bgt) and further incubated for 2 hours. The samples were isolated by vacuum filtration onto Whatman GF/B filters, which were prerinsed with 0.5% polyethylenimine just prior to sample filtration, using Brandel multi manifold cell harvester. The filters were rapidly rinsed with washing solution (10 mM of KH2PO4, 150 mM of NaCl, pH 7.2, room temperature) (5×1 ml). The filters were counted in 3 ml of clearsol I (Nacalai Tesque Inc.). The determination of nonspecific binding was incubated in the presence of 1 μM α-Bgt. […] In the receptor binding experiments, said buffer solution was added for adjusting the final concentration of BSA to be 0.05%.
The analyses of the experimental results were conducted by the same way as described in the Biological Experiment 1.

The target of assay [3] is T2, human α4β2 subtype of nicotinic acetylcholine receptors (Homo sapiens, UniProt P17787+P43681).
T2 construct: expressed in transfected cells; host or cells: Xenopus laevis oocytes injected with hnACh-R α4 and β2 cRNA (pSP64 polyA)
T2 sequence (P43681 29-627 limits assumed): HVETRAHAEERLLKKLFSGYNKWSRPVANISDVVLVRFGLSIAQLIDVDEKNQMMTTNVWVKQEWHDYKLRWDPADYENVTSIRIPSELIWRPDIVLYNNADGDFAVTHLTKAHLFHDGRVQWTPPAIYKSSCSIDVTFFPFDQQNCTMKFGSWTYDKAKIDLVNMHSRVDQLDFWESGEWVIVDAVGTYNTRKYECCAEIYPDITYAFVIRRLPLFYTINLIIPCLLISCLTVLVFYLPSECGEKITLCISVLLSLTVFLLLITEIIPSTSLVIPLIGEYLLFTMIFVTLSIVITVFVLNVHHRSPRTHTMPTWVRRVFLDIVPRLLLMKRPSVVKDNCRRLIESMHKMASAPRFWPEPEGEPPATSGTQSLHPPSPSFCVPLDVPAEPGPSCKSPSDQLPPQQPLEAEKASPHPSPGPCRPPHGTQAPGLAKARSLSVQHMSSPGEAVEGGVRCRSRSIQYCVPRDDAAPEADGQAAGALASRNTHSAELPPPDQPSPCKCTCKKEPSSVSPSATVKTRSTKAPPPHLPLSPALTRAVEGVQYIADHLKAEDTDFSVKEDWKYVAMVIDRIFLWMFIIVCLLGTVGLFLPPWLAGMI
T2 sequence (P17787 26-502): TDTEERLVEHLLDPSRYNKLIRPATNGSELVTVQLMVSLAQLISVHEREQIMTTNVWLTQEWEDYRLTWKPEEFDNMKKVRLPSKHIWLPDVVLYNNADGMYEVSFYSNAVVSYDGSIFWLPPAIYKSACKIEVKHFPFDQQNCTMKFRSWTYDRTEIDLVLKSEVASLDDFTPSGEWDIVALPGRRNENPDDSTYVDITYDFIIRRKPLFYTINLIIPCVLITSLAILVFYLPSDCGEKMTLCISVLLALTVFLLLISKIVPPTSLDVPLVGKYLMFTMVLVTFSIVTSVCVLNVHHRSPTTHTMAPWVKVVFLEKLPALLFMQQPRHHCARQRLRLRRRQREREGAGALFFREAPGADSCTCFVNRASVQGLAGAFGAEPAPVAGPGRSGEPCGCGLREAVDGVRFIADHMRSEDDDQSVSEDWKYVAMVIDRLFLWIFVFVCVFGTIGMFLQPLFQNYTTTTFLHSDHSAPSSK
Nature of the assay: Agonist activities at human α4β2 subtype of nicotinic acetylcholine receptors expressed in Xenopus oocytes (membrane potential holding method). The class given is cell-based. As to conditions: 100 μM test compound, relative to 10 μM acetylcholine (100%). The protocol: The agonist effect in human α4β2 subtype of nicotinic acetylcholine receptors are examined by using human nicotinic acetylcholine receptors prepared in oocytes of Xenopus laevis, which is injected with cRNA from the corresponding cloning cDNA of human α4 and β2 subunits of nicotinic acetylcholine receptors, and to measure the expression of the electric response by adding the test compounds to perfusion solution by means of membrane potential holding method.
Agonist Activities at Human α4β2 Subtype of Nicotinic Acetylcholine Receptors
(1) Preparation of cRNA of Human α4β2 Subtype of Nicotinic Acetylcholine Receptors
The obtained hnACh-R α4 cDNA and hnACh-R β2 cDNA were inserted to the cRNA expression vector (pSP64 polyA) having SP6 RNA promoter to construct hnACh-R α4/pSP64 polyA and hnACh-R β2/pSP64 polyA, respectively. After cutting from expression vector by restriction enzyme (EcoRI), transcription was performed by affecting SP6 RNA polymerase in the presence of cap analogues to obtain hnACh-R α4 cRNA and hnACh-R β2 cRNA, respectively.
(2) Expression of Human α4β2 Subtype Nicotinic Acetylcholine Receptors in Xenopus Oocytes
Oocytes were purchased from Kitanihonseibutsukyohzai Co., Ltd., which were already enucleated from Xenopus laevis, and used in this experiment.
The oocytes were treated with collagenase (Sigma type I; 1 mg/ml) in calcium-free modified Birth's solution (88 mM of NaCl, 1 mM of KCl, 2.4 mM of NaHCO3, 0.82 mM of MgSO4, 15 mM of HEPES, pH 7.6) under gently stirring at room temperature for 90 minutes, and washed out the enzyme from the tissue. Then, oocytes were separated from ovarian follicle by tweezers, and isolated oocytes were placed in antibiotics containing modified Birth's solution (88 mM of NaCl, 1 mM of KCl, 2.4 mM of NaHCO3, 0.82 mM of MgSO4, 15 mM of HEPES, pH 7.6, and 0.1 v/v % of mixture solution containing of penicillin and streptomycin for incubation; Sigma Co.). […] In oocytes, heterogeneous quintuple [(α4)2(β2)3] was composed by translation of injected cRNAs, and ion channel receptors were constructed on cell membrane.
(3) Agonist Activities at Human α4β2 Subtype of Nicotinic Acetylcholine Receptors
The recordings of responses at human α4β2 subtype of nicotinic acetylcholine receptors by means of membrane potential holding method were performed as follow. […] Test compounds were added to the perfusion solution, and recorded the peak strength of induced inward current. In order to normalize the responses of test compounds, the responses with acetylcholine (Ach) were recorded before and after application of the test compounds. Generally in the oocytes just after isolated, the response of intrinsic muscarinic acetylcholine receptors, which is inward current caused by activation of calcium dependence chloride ion channels with increase of the intracellular calcium concentration by stimulation of receptors, is observed. […] Therefore, the responses observed in oocytes with injection of hnACh-R α4 cRNA and hnACh-R β2 cRNA, i.e., the inward current induced by the intracellular influx of sodium ion according to the stimulation of receptors, would be the freshly observed responses of human α4β2 subtype nicotinic acetylcholine receptors.

T1 sequence (P09483 31-630): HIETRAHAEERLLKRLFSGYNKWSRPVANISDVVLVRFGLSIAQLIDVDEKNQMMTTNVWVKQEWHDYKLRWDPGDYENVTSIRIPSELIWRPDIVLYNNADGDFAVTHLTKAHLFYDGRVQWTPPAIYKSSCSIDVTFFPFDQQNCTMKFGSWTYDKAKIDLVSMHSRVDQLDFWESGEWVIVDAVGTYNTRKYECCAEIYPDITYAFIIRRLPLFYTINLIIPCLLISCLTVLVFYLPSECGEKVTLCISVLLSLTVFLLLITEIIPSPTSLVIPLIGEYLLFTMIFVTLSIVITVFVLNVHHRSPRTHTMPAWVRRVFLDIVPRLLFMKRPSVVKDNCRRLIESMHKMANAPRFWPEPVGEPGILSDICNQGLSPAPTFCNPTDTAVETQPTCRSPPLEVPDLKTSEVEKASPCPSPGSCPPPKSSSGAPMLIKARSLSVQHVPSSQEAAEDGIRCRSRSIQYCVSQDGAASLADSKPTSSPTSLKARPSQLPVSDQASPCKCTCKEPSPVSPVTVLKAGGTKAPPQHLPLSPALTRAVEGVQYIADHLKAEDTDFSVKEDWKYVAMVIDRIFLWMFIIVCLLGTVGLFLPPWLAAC
T1 sequence (P12390 25-500): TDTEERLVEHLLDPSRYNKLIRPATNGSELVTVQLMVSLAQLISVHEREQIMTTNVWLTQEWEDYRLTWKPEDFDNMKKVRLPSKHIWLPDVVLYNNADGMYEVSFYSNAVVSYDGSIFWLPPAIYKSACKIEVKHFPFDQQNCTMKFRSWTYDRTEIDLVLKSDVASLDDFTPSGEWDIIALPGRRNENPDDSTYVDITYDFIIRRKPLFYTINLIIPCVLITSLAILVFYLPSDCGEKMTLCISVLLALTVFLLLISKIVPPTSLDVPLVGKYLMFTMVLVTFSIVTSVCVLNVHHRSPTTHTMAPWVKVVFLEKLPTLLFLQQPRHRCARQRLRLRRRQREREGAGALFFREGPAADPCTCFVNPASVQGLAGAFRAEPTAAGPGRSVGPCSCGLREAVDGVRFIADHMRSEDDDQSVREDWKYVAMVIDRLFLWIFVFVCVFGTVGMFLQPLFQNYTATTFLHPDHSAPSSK

What is called Ki is a dissociation constant, usually derived from enzyme kinetics or from competition with a known ligand. Consider `Clc1ccc(CN2C=NCCC2)cn1` [Compound 27, 1-(6-chloro-3-pyridyl)methyl-1,4,5,6-tetrahydropyrimidine], for which the inhibition constant Ki in assay [1] was 0.002 µM; in assay [2], 45 µM. Besides, in assay [3], the “Agonist activity: control % by response at 100 μM of the test compound” value (shortened to “Agonist activity: control % by response”) is on record as “(18.0%)”.

Regarding `Cc1ccc(CC2=NCCN2)cn1` [Compound 45, 2-(6-methyl-3-pyridyl)methyl-2-imidazoline], the “Agonist activity: control % by response” value in assay [3] is given as “(12.0%)”.

Take `Cc1ccc(CN2C=NCCC2)cn1` [Compound 57, 1-(6-methyl-3-pyridyl)methyl-1,4,5,6-tetrahydropyrimidine]: the inhibitory constant (Ki) in assay [1] turned out to be 0.012 µM; in assay [2] it was 86 µM. Moreover, the “Agonist activity: control % by response” value in assay [3] is recorded as “(9.1%)”.

On to `C1=NCCCN1Cc1cccnc1` [Compound 58, 1-(3-pyridyl)methyl-1,4,5,6-tetrahydropyrimidine], for which the inhibitory constant (Ki) in assay [1] came out at 0.0069 µM; in assay [2], 32 µM. The “Agonist activity: control % by response” value in assay [3] is “(27.9%)”.

As to `CC1=NCCN1CCc1ccc(Cl)nc1` [Compound 62, 1-[2-(6-chloro-3-pyridyl)ethyl]-2-methyl-2-imidazoline], the inhibition constant Ki in assay [1] worked out at 0.07 µM; in assay [2] it was 639 µM. The “Agonist activity: control % by response” value in assay [3] was “(9.6%)”.

(Values after US20030100769A1, “Cyclic amidine compounds” (priority 2000, published 2003).)
